From ChEMBL document CHEMBL1201862, “PubChem BioAssay data set” (2004)
Activity calls are given as the source filed them.

Columns and labels:
[1] = target: Luciferin 4-monooxygenase (Photinus pyralis, UniProt P08659); experiment: firefly luciferase enzyme inhibitors, dose response, biochemical, luminescence (AID 1891)
[2] = target: Heat shock protein HSP 90-alpha (Homo sapiens, UniProt P07900); experiment: Luminescence-based dose response biochemical high throughput screening assay for inhibitors of the Heat Shock Protein 90 (HSP90). [Related pubchem assays: 1831 (Summary AID.), 1846 (Confirmation screen.), 1789 (Primary screen.)]
[3] = C. albicans growth with fluconazole, confirmation, fluorescence, retest (AID 2467); assay type: functional, cell-based
[4] = NIH-3T3 fibroblast cytotoxicity, dose response, cytotoxicity control, cell-based, fluorescence, Alamar Blue, secondary assay (AID 2327); assay type: functional;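 note: NIH-3T3 mouse fibroblasts cultured with fluconazole at 8 µg/mL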
[5] = Luminescence Cell-Based Dose Confirmation HTS to Identify Inhibitors of Platelet Dense Granule Release. [Related pubchem assays: 1663 (Primary HTS), 1678 (Summary of Project)]; assay type: functional
[6] = tested on: INS1; experiment: beta cell apoptosis inhibitors, cytokine rescue, dose response, luminescence, retest (AID 449756); assay type: functional, cell-based; conditions: Rattus norvegicus;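 note: cell death triggered by IL-1 beta plus TNF-alpha plus IFN-gamma mixture; protective hits raise ATP signal compared with cytokine alone wells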
[7] = target: Major prion protein (Homo sapiens, UniProt P04156); assay type: functional, cell-based
[8] = cells
[9] = microbe, parasite or virus in culture; assay type: functional; conditions: Mycobacterium tuberculosis
[10] = target: E3 ubiquitin-protein ligase Mdm2 (Homo sapiens, UniProt Q00987); experiment: enhancers of MDM2-luciferase reporter signal, concentration-effect titration, project on inhibitors of MDM2 ubiquitin ligase, cellular assay, luminescent readout, 384-well plate format (AID 1394); assay type: functional;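 note: MDM2 E3 inhibitors raise luminescence so EC50 is for signal enhancement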
[11] = target: Kallikrein-7 (Homo sapiens, UniProt P49862); experiment: Fluorescence Intensity-based biochemical primary high throughput dose response assay to identify activators of kallikrein-7 (K7) zymogen.
[12] = target: Mitogen-activated protein kinase 10 (Homo sapiens, UniProt P53779); experiment: Dose response biochemical screening assay for inhibitors of c-Jun N-Terminal Kinase 3 (JNK3). [Related pubchem assays: 746 ]
[13] = target: Prothrombin (Homo sapiens, UniProt P00734); experiment: Thrombin 1536 HTS Dose Response Confirmation. [Related pubchem assays: 1046 (Thrombin 1536 HTS; hits were confirmed in this assay)]; assay type: functional
[14] = LGR2 antagonists, dose response, cell-based, HEK293, CRE-luciferase reporter, cherry pick, set 2 (AID 743343); assay type: functional;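 note: transfected cells were stimulated with diluted bursicon conditioned medium after compound addition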
[15] = HepG2 cell cytotoxicity, dose response, cytotoxicity control, plate reader, cherry-pick, antagonist series (AID 743416); assay type: functional, cell-based
[16] = tested on: H9c2; experiment: cells; assay type: functional, cell-based; conditions: Rattus norvegicus, H9c2, Myocardium;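 note: confirmatory concentration-response retest of ultra-high-throughput screening hits for modulation of myocardial damage; cell death induced by hydrogen peroxide oxidative stress; compound pretreatment for 60 min then peroxide exposure for 2 h; potency is for protecting the cells against peroxide damage rather than for killing them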
[17] = MC4R antagonists, dose response, counter-screen for LGR2 antagonist project, cell-based, plate reader, cherry pick (AID 743444); assay type: functional;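 note: transfected HEK 293 cells stimulated with alpha-MSH peptide; potency of inhibitors of the alpha-MSH evoked signal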
[18] = A549 cell cytotoxicity, dose response, cytotoxicity control, plate reader, cherry-pick, antagonist series (AID 743412); assay type: functional, cell-based
[19] = HEK293T cytotoxicity, dose response, cytotoxicity control for miR-122 modulator project, cell-based, inhibitor set, cherry-pick, set 2 (AID 720697); assay type: functional
[20] = target: T1, Estrogen receptor beta (Homo sapiens, UniProt Q92731);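 note: recombinant ER-beta bound to coactivator SRC1 peptide in presence of estradiol agonist; inhibitors block coactivator peptide binding and lower the FRET signal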
[21] = target: T1, Estrogen receptor beta; experiment: ERβ–SRC-3 coactivator interaction inhibitors, confirmation, orthogonal assay, biochemical, ELISA, streptavidin-HRP readout (AID 1060)
[22] = P. falciparum late gametocyte killing, dose response, luminescence (AID 1117278); assay type: functional, cell-based;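 note: gametocytes exposed to compound for 24 hours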
[23] = Jurkat T cell cytotoxicity, dose response, cytotoxicity control for P. falciparum gametocyte viability project, luminescence (AID 1117277); assay type: functional, cell-based;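 note: potency reflects loss of cellular ATP meaning fewer viable cells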
[24] = THP-1 cell cytotoxicity, dose response, cytotoxicity control for Vif-APOBEC3G degradation inhibitor project, THP-1 cells (AID 1117359); assay type: functional; conditions: Human immunodeficiency virus 1, THP-1
[25] = tested on: Vero; experiment: cells; assay type: functional; conditions: Chlorocebus sabaeus
[26] = LMP1-driven NF-kB reporter inhibition, dose response, cell-based, luciferase reporter, luminescence, dry powder, set 2 (AID 624376); assay type: functional
[27] = miR-122 activators in hepatoma reporter cells, dose response, cell-based, Huh7 psiCHECK-miR122, Renilla luciferase, cherry-picked (AID 651956); assay type: functional;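 note: huh7 hepatoma cells stably carrying a psiCHECK-2 miR-122 sensor plasmid; renilla luciferase signal reporting endogenous miR-122 activity after 48 h compound exposure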
[28] = HepG2 cell cytotoxicity, dose response, cytotoxicity control, cherry-picked samples (AID 1159577); assay type: functional, cell-based
[29] = P. falciparum Dd2 growth inhibitors, dose response, SYBR Green, cherry-picked samples (AID 1159567); assay type: functional, cell-based
[30] = P. falciparum Dd2 growth inhibitors, dose response, SYBR Green, dry powder samples (AID 1159566); assay type: functional, cell-based;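 note: potency for growth inhibition with lower SYBR green DNA signal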
[31] = P. falciparum 3D7-ScDHODH growth inhibitors, dose response, SYBR Green, dry powder samples (AID 1159570); assay type: functional, cell-based;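 note: parasite growth measured after 72 hours of compound exposure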
[32] = HepG2 cell cytotoxicity, dose response, cytotoxicity control, plate reader, dry powder samples (AID 1159569); assay type: functional, cell-based;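 note: inhibitor potency with signal falling toward the positive control level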
[33] = P. falciparum ATP4 D1247Y mutant growth inhibitors, dose response, NITD609-resistant line, SYBR Green, dry powder (AID 1159571); assay type: functional, cell-based;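 note: parasites synchronized at ring stage by sorbitol before testing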
[34] = HeLa 2N DNA content increase, dose response, cell-based, IC50 (AID 1117349); assay type: functional
[35] = CellTiter-Glo luminescent dose response of DLD-1 viability loss (AID 1117352); assay type: functional
[36] = RKO cell viability reduction, dose response, CellTiter-Glo luminescence (AID 1117322); assay type: functional
[37] = cytotoxicity toward Colo320 cells – cell-based, CellTiter-Glo luminescence, IC50, dose response (AID 1117334); assay type: functional; conditions: COLO 320
[38] = SNU-C1 cell viability reduction, dose response, CellTiter-Glo luminescence (AID 1117323); assay type: functional, cell-based
[39] = HeLa 4N DNA content increase, dose response, cell-based, IC50 (AID 1117351); assay type: functional
[40] = HCT116 cell viability decrease, GSK3B pretreatment – CellTiter-Glo, IC50, dose response (AID 1117339); assay type: functional; conditions: HCT-116
[41] = cytotoxicity toward HCT116 cells – cell-based, CellTiter-Glo luminescence, IC50, dose response (AID 1117332); assay type: functional; conditions: HCT-116
[42] = cytotoxicity toward HT-29 cells – cell-based, CellTiter-Glo luminescence, IC50, dose response (AID 1117330); assay type: functional
[43] = Concentration-dependent survival of SW480 colon cancer line, luminescence detection with CellTiter-Glo, half-maximal inhibitory concentration (AID 1117338); assay type: functional
[44] = target: T2, Apoptotic protease-activating factor 1 (Homo sapiens, UniProt O14727); assay type: functional
T2 sequence (O14727 whole entry): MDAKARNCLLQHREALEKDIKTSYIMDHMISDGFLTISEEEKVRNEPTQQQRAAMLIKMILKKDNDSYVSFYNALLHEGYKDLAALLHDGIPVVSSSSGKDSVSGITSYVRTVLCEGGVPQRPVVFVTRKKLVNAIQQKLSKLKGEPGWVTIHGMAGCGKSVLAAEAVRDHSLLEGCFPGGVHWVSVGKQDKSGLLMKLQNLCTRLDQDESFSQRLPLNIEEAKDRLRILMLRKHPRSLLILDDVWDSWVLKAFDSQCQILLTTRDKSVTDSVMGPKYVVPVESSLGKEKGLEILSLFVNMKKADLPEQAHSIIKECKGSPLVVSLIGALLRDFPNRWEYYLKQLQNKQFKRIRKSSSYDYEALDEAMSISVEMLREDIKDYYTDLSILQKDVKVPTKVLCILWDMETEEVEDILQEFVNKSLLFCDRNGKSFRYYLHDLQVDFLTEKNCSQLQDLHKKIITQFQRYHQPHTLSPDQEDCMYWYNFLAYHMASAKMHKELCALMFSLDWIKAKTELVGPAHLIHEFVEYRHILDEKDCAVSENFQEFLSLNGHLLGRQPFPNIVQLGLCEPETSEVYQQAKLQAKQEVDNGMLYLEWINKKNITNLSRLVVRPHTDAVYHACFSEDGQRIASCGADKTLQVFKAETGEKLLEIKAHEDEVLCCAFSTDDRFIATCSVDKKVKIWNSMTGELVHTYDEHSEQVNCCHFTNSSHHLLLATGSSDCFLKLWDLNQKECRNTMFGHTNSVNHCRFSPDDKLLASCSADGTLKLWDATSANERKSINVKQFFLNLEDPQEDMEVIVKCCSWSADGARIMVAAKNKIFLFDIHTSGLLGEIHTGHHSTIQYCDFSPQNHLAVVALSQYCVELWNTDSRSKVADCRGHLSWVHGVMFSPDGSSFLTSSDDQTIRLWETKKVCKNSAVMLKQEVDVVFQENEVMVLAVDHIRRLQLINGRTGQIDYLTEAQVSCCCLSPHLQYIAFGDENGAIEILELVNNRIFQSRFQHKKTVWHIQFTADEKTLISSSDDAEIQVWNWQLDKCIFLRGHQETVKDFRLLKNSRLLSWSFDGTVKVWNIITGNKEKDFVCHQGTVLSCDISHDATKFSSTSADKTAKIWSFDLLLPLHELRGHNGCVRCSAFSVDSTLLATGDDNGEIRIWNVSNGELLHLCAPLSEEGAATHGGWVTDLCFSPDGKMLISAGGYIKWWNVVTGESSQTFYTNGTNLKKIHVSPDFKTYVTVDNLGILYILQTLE

[45] = target: Tyrosyl-DNA phosphodiesterase 2 (Homo sapiens, UniProt O95551); experiment: human TDP2 enzyme inhibitors, dose response, biochemical, epi absorbance, IC50 (AID 743297)

CCCCOc1ccc(-c2cc(C(=O)NN=C(S)NCC)c3ccccc3n2)cc1
EC50 [1]: 516 nM (active)
IC50 [2]: 2.45 µM (active)
EC50 [3]: 1.8 µM (active)
EC50 [4]: 16.1 µM (inconclusive)
EC50 [5]: < 701 nM (active)
AC50 [6]: 3.2 µM (active)

CC1CCC(NC(=O)c2cc3c(s2)CCCC3)CC1 (centres undefined)
IC50 [7]: 4.39 µM (active)
IC50 [8]: > 138 µM (inactive)
CC50 [9]: > 40 µM (active)

COCCNc1nc2nonc2nc1N(C)Cc1cccc2cnccc12
EC50 [10]: 220 nM (not active)

Cc1nn(CCc2nnn[nH]2)c2nc(C(F)(F)F)cc(C(F)(F)F)c12
EC50 [11]: > 69.5 µM (inactive)

CCOc1cc(C2NC(=O)NC(C)=C2C(=O)OCc2ccccc2)ccc1O (centres undefined)
IC50 [12]: 34.6 µM (not active)

COc1cc2cc(Br)cc(Br)c2nc1C
IC50 [7]: 4.51 µM (active)
IC50 [8]: > 138 µM (inactive)

COc1cc(C(=O)Nc2nc(-c3cccs3)cs2)cc(OC)c1OC
IC50 [13]: 2.64 µM (active)
AC50 [14]: 23.3 µM (active)
AC50 [15]: > 52 µM (inactive)
IC50 [16]: > 79 µM (inactive)
AC50 [17]: 27.7 µM (active)
AC50 [18]: > 52 µM (inactive)

CCOC(=O)c1ccc(NC(=O)c2ccc(CN3CCOCC3)cc2)cc1
AC50 [19]: 19.3 µM (active)

Cc1ccc(NC(=O)COc2ccc(-n3cnnn3)cc2)cc1C
IC50 [20]: > 50 µM (not active)
IC50 [21]: < 23 nM (not active)

COC(=O)CCCC(=O)NC(C)c1cnn(-c2ccccc2C)c1C (centres undefined)
IC50 [22]: > 109 µM (inactive)
IC50 [23]: > 83.3 µM (inactive)

Nc1nc(SCC(=O)N2CCCC2)nc(O)c1NC(=O)c1cccs1
IC50 [22]: > 109 µM (inactive)
IC50 [23]: > 83.2 µM (inactive)

O=c1[nH]c2ccccc2c2nc3ccccn3c12
IC50 [12]: 13.8 µM (not active)

O=[N+]([O-])c1ccc2c([N+](=O)[O-])ccc3c2c1CC3
CC50 [24]: > 40 µM (active)

CN(C)c1n/c(=N/Cc2ccco2)ss1
EC50 [10]: 260 nM (active)
CC50 [25]: 23.8 µM (active)

COc1cccc(S(=O)(=O)N(C)C[C@@H]2Oc3cc(C4=CCCCC4)ccc3S(=O)(=O)N([C@H](C)CO)C[C@H]2C)c1
AbsAC35 [26]: 85.29 µM
AC50 [27]: 30.2 µM (active)
AC50 [19]: 0.502 µM (active)

COc1ccccc1C#Cc1ccc([C@H]2[C@@H](C#N)N(C(=O)C3CCC3)[C@@H]2CO)cc1
AC50 [28]: > 39 µM (inactive)
AC50 [29]: 4.98 µM (active)

COc1cccc(C#Cc2ccc([C@@H]3[C@@H](CO)N(C(=O)C4CCCCC4)[C@H]3C#N)cc2)c1
AC50 [30]: 1.72 µM (active)
AC50 [31]: 2 µM (active)
AC50 [32]: 24.5 µM (active)
AC50 [33]: 2.06 µM (active)
AC50 [28]: > 39 µM (inactive)
AC50 [29]: 2.6 µM (active)

CCCSc1ccc2[nH]c(NC(=O)OC)nc2c1 [ALBENDAZOLE]
IC50 [34]: 0.0656 µM (active)
IC50 [35]: 108 nM (active)
IC50 [36]: 165 nM (active)
IC50 [37]: 502 nM (active)
IC50 [38]: > 20 µM (inactive)
IC50 [39]: 0.0612 µM (active)
IC50 [40]: 158 nM (active)
IC50 [41]: 112 nM (active)
IC50 [42]: > 20 µM (inactive)
IC50 [43]: > 20 µM (inactive)

CCc1oc2ccccc2c1C(=O)c1cc(I)c(O)c(I)c1 [BENZIODARONE]
IC50 [34]: > 10 µM (inactive)
IC50 [35]: 3 nM (active)
IC50 [36]: 3 nM (active)
IC50 [37]: 3 nM (active)
IC50 [38]: 0.001 µM (active)
IC50 [39]: > 10 µM (inactive)
IC50 [40]: 1 nM (active)
IC50 [41]: 3 nM (active)
IC50 [42]: 0.001 µM (active)
IC50 [43]: 0.001 µM (active)

COc1cc2c(cc1O)[C@@H]1Cc3ccc(OC)c(O)c3CN1CC2 [SCOULERINE]
IC50 [44]: 16.3 µM (active)
IC50 [45]: > 128 µM (inactive)
